Reference: ChEMBL document CHEMBL1201862, “PubChem BioAssay data set” (2004)
The source made the active and inactive calls.

How the values were obtained:
ORF 73 = molecular target: T1, ORF 73 (Human herpesvirus 8, UniProt O40947); assay: inhibitors of C-LANA binding to LBS DNA, dose response, biochemical, fluorescence polarization, cherry-picked samples (AID 504725); design: species or system Human gammaherpesvirus 8;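 further: fluorescence polarization of a labeled DNA duplex reporting LANA DNA binding; potency is for inhibitors that block LANA binding to the DNA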
T1 sequence (O40947 whole entry): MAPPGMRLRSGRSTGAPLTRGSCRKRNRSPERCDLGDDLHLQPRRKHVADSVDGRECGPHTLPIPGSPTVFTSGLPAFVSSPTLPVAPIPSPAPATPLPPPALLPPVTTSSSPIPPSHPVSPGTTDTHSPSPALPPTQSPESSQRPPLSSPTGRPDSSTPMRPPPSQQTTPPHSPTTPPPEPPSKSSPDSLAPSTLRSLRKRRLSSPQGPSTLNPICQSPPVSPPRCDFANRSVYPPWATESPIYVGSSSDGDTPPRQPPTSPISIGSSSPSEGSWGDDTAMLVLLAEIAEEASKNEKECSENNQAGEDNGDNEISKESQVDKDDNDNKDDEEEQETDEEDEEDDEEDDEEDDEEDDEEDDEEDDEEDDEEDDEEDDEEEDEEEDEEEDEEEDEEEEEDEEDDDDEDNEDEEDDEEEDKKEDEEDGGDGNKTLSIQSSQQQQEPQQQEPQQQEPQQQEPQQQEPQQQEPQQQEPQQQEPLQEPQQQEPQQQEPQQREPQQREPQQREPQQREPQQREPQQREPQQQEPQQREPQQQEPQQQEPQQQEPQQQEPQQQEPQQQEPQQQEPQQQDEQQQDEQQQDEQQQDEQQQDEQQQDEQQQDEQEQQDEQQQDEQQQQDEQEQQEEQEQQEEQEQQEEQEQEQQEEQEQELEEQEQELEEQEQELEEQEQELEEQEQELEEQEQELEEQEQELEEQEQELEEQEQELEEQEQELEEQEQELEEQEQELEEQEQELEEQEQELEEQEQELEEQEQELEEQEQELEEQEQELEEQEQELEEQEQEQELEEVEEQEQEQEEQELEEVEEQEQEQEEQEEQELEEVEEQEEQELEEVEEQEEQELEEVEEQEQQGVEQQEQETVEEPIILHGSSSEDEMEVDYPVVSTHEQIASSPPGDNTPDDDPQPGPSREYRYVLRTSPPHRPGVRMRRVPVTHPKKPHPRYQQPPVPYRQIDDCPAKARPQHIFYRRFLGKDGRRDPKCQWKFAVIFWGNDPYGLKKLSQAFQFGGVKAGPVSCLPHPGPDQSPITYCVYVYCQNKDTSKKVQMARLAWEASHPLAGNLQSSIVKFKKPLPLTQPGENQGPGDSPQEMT

[1] = molecular target: T2, Replicative DNA helicase DnaB (Mycobacterium tuberculosis, UniProt P9WMR3); assay: DnaB intein splicing inhibitors, dose response, biochemical, cell-free fluorescence (AID 449749); type: functional
T2 sequence (P9WMR3 whole entry): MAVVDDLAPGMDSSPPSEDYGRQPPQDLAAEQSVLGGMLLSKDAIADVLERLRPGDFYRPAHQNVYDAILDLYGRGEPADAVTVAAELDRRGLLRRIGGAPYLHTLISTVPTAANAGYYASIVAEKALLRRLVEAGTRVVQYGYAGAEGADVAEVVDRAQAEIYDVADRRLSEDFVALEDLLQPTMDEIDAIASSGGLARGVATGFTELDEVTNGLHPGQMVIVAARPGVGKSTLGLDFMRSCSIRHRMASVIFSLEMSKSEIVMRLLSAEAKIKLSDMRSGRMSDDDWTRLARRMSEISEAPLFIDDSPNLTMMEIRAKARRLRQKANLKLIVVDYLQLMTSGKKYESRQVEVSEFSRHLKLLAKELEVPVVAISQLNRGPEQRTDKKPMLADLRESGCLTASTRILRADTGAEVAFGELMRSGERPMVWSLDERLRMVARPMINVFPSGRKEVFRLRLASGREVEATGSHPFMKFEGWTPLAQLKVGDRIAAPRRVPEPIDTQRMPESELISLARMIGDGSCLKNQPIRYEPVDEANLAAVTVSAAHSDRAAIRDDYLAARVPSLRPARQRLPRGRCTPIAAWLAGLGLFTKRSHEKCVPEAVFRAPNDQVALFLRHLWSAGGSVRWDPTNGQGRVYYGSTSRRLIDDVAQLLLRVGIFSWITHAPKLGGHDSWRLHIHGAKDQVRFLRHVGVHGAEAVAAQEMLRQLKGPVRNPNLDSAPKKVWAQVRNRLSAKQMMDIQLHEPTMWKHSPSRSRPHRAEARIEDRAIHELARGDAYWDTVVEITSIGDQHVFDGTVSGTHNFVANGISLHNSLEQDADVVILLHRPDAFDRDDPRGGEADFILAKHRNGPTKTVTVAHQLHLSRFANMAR

CCN(CC)CCN1C(=O)c2cccc3cc(N)cc(c23)C1=O
AC50 (ORF 73): 17.1 µM (active) | AC50 [1]: 0.272 µM (active)

O=C(O)c1cccc(-n2cccc2/C=C2/NC(=O)N(c3ccc(Cl)cc3)C2=O)c1
AC50 (ORF 73): 23.3 µM (active)

C=C1C(=O)O[C@@H]2C[C@@H](C)[C@@H]3C=CC(=O)[C@@]3(C)[C@@H](OC(=O)CC(=O)O[C@H]3[C@@H]4C(=C)C(=O)O[C@@H]4C[C@@H](C)[C@@H]4C=CC(=O)[C@]43C)[C@H]12
AC50 [1]: 111 µM (active)

O=S(=O)(O)c1cc(Cl)cc(N=Nc2ccc(O)cc2O)c1O
AC50 (ORF 73): 70.2 µM (active)
